Test results published in PubChem BioAssay (NCI).
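Assay format: 96-well plates, 48-hour exposure. At the TGI there is no net growth.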

Legend:
Assay in all cases: inhibition of tumour cell growth, NCI panel, 48 h
786-0 renal = system: 786-0 renal
A498 renal = system: A498 renal
A549 NSCLC = system: A549 NSCLC
ACHN renal = system: ACHN renal
BT-549 breast = system: BT-549 breast
CAKI-1 renal = system: CAKI-1 renal
CCRF-CEM leukemia = system: CCRF-CEM leukemia
COLO 205 colon = system: COLO 205 colon
DU-145 prostate = system: DU-145 prostate
EKVX NSCLC = system: EKVX NSCLC
HCC-2998 colon = system: HCC-2998 colon
HCT-116 colon = system: HCT-116 colon
HCT-15 colon = system: HCT-15 colon
HL-60(TB) leukemia = system: HL-60(TB) leukemia
HOP-92 NSCLC = system: HOP-92 NSCLC
HS 578T breast = system: HS 578T breast
HT29 colon = system: HT29 colon
IGROV1 ovarian = system: IGROV1 ovarian
K-562 leukemia = system: K-562 leukemia
KM12 colon = system: KM12 colon
LOX IMVI melanoma = system: LOX IMVI melanoma
M14 melanoma = system: M14 melanoma
MALME-3M melanoma = system: MALME-3M melanoma
MCF7 breast = system: MCF7 breast
MDA-MB-231 breast = system: MDA-MB-231 breast
MDA-MB-435 = system: MDA-MB-435
MDA-N = system: MDA-N
MOLT-4 leukemia = system: MOLT-4 leukemia
NCI-H226 lung = system: NCI-H226 lung
NCI-H23 lung = system: NCI-H23 lung
NCI-H460 lung = system: NCI-H460 lung
NCI-H522 lung = system: NCI-H522 lung
NCI/ADR-RES ovarian = system: NCI/ADR-RES ovarian
OVCAR-3 ovarian = system: OVCAR-3 ovarian
OVCAR-4 ovarian = system: OVCAR-4 ovarian
OVCAR-5 ovarian = system: OVCAR-5 ovarian
OVCAR-8 ovarian = system: OVCAR-8 ovarian
PC-3 prostate = system: PC-3 prostate
SF-268 CNS = system: SF-268 CNS
SF-295 CNS = system: SF-295 CNS
SF-539 CNS = system: SF-539 CNS
SK-MEL-2 melanoma = system: SK-MEL-2 melanoma
SK-MEL-28 melanoma = system: SK-MEL-28 melanoma
SK-MEL-5 melanoma = system: SK-MEL-5 melanoma
SK-OV-3 ovarian = system: SK-OV-3 ovarian
SN12C renal = system: SN12C renal
SNB-19 CNS = system: SNB-19 CNS
SW-620 colon = system: SW-620 colon
T-47D breast = system: T-47D breast
TK-10 renal = system: TK-10 renal
U251 CNS = system: U251 CNS
UACC-257 melanoma = system: UACC-257 melanoma
UACC-62 melanoma = system: UACC-62 melanoma
UO-31 renal = system: UO-31 renal

Structure (SMILES): N#Cc1c2c(c(N3CCOCC3)n3c1nc1ccccc13)CCCC2
- TGI (786-0 renal): 41.3 µM
- TGI (A498 renal): 34.5 µM
- TGI (A549 NSCLC): 61.7 µM
- TGI (ACHN renal): 31.3 µM
- TGI (BT-549 breast): > 100 µM
- TGI (CAKI-1 renal): 37.9 µM
- TGI (CCRF-CEM leukemia): 8.48 µM
- TGI (COLO 205 colon): 37.5 µM
- TGI (DU-145 prostate): 37.2 µM
- TGI (EKVX NSCLC): 35.9 µM
- TGI (HCC-2998 colon): 40.9 µM
- TGI (HCT-116 colon): 31.7 µM
- TGI (HCT-15 colon): 36.2 µM
- TGI (HL-60(TB) leukemia): 35.5 µM
- TGI (HOP-92 NSCLC): 38.8 µM
- TGI (HS 578T breast): > 100 µM
- TGI (HT29 colon): 38.6 µM
- TGI (IGROV1 ovarian): 34.9 µM
- TGI (K-562 leukemia): > 100 µM
- TGI (KM12 colon): > 100 µM
- TGI (LOX IMVI melanoma): 41.1 µM
- TGI (M14 melanoma): 44.4 µM
- TGI (MALME-3M melanoma): 34 µM
- TGI (MCF7 breast): 87.1 µM
- TGI (MDA-MB-231 breast): 54.7 µM
- TGI (MDA-MB-435): 39.7 µM
- TGI (MDA-N): 38.7 µM
- TGI (MOLT-4 leukemia): 41.5 µM
- TGI (NCI-H226 lung): 32.5 µM
- TGI (NCI-H23 lung): 47.3 µM
- TGI (NCI-H460 lung): 56.4 µM
- TGI (NCI-H522 lung): 30.1 µM
- TGI (NCI/ADR-RES ovarian): 43.2 µM
- TGI (OVCAR-3 ovarian): 36.5 µM
- TGI (OVCAR-4 ovarian): 51.4 µM
- TGI (OVCAR-5 ovarian): 41.8 µM
- TGI (OVCAR-8 ovarian): 43.4 µM
- TGI (PC-3 prostate): 50.3 µM
- TGI (SF-268 CNS): > 100 µM
- TGI (SF-295 CNS): 34.8 µM
- TGI (SF-539 CNS): 39.3 µM
- TGI (SK-MEL-2 melanoma): 31.8 µM
- TGI (SK-MEL-28 melanoma): 49.3 µM
- TGI (SK-MEL-5 melanoma): 37 µM
- TGI (SK-OV-3 ovarian): 67.7 µM
- TGI (SN12C renal): 45.8 µM
- TGI (SNB-19 CNS): 32 µM
- TGI (SW-620 colon): 29 µM
- TGI (T-47D breast): 41.5 µM
- TGI (TK-10 renal): 49.3 µM
- TGI (U251 CNS): 28.3 µM
- TGI (UACC-257 melanoma): 65.9 µM
- TGI (UACC-62 melanoma): 55.5 µM
- TGI (UO-31 renal): 35.4 µM
